The subject of one test is SU‐DHL‐16. The experiment in a line: MTT proliferation assay, SU‐DHL‐16. The following applies: Homo sapiens, SU‐DHL‐16, 72 h treatment, n = 2, read-out: IC50 (cell proliferation). In kind it is cell-based. The procedure:
(§1) Lymphoma cell lines were exposed to a large range of concentrations of each compound as single agent for 24 h or 72 h, followed by MTT and after 4 h SDS to stop the reaction. The day after, plates were read using a Cytation 3 plate reader (Biotek) and IC50s were calculated. DMSO was used as a control (untreated). IC50 is defined as the drug concentration giving 50% of proliferating cells compared to vehicle treated cells. IC50 was calculated by fitting the values via nonlinear regression (GraphPad Prism 8.0). Values represent mean ± S.D.

In a further test the test system is SU‐DHL‐2. The test is described as follows: MTT proliferation assay, SU‐DHL‐2. The following applies: Homo sapiens, SU‐DHL‐2, 72 h treatment, n = 2, read-out: IC50 (cell proliferation). The format is cell-based. The procedure: as §1
Another test concerns H3K27 acetylation. The experiment in a line: Western blot of H3K27ac levels in SU‐DHL‐10 cells. In kind it is cell-based. The following applies: 24 h.
Test [1] addresses T1, CBP (Homo sapiens, UniProt Q92793). The test is described as follows: CBP catalytic activity inhibition. In kind it is biochemical. The following applies: means ± S.D., n = 3. An excerpt:
(§2) To answer this question, we initially characterized them both for their inhibition of CBP and p300 catalytic activities.

Another test relates to TMD8. The experiment in a line: MTT proliferation assay, TMD8. The following applies: Homo sapiens, TMD8, 72 h treatment, n = 2, read-out: IC50 (cell proliferation). The format is cell-based. As to the method:
as §1

For another test, the system named is WSU‐DLCL2. The experiment in a line: MTT proliferation assay, WSU‐DLCL2. The format is cell-based. The note with it: Homo sapiens, WSUDLCL2, WSU‐DLCL2, 72 h treatment, n = 2, read-out: IC50 (cell proliferation). As to the method:
as §1

Test [2] relates to SU‐DHL‐2, SU‐DHL‐16, TMD8, and WSU‐DLCL2. The experiment in a line: MTT proliferation assay, additional DLBCL cell lines (summary). In kind it is cell-based. The note with it: 72 h, range over DLBCL cell lines and both compounds, read-out: viability IC50, range over cell lines. The procedure: as §1
Test [3] has as its target T1, CBP. The test is described as follows: Western blot of CBP levels in SU‐DHL‐10 cells. In kind it is cell-based. Details: WB analysis of CBP levels in the DLBCL SU‐DHL‐10 cell line; endogenous in cells; host or cells: SU-DHL-10. The procedure:
(§3) Following compound treatment for the indicated time frame (4 to 24 h), cells were solubilized, and the protein content was determined using the BCA protein assay (Pierce Chemical Co). Lysates were fractionated by SDS–polyacrylamide gel electrophoresis (SDS‐PAGE). Membranes were incubated with anti‐CBP (CBP (D6C5) Rabbit mAb #7389, Cell Signaling Technology), anti‐p300 (Anti‐KAT3B/p300 antibody (3G230), Abcam) or anti‐GAPDH (GAPDH Monoclonal Antibody (FF26A), Thermo Fisher Scientific) antibodies overnight. This was followed by incubation with the appropriate horseradish peroxidase‐conjugated anti‐mouse or anti‐rabbit secondary antibodies (Cytiva Europe) for 1 h. Enhanced chemiluminescence detection was then done following the manufacturer's instructions. GAPDH was used as a loading control. Images were quantified with the internal software of the Fusion Solo S (Vilber).

In test [4] the target is T2, p300 (Homo sapiens, UniProt Q09472). The test is described as follows: Western blot of p300 levels in SU‐DHL‐10 cells. In kind it is cell-based. The note with it: for p300 protein levels (WB): SU‐DHL‐10, increasing concentrations. Details: WB analysis of p300 levels in the SU‐DHL‐10 cell line; endogenous in cells; host or cells: SU-DHL-10. As to the method: as §3
T2 sequence (Q09472 whole entry): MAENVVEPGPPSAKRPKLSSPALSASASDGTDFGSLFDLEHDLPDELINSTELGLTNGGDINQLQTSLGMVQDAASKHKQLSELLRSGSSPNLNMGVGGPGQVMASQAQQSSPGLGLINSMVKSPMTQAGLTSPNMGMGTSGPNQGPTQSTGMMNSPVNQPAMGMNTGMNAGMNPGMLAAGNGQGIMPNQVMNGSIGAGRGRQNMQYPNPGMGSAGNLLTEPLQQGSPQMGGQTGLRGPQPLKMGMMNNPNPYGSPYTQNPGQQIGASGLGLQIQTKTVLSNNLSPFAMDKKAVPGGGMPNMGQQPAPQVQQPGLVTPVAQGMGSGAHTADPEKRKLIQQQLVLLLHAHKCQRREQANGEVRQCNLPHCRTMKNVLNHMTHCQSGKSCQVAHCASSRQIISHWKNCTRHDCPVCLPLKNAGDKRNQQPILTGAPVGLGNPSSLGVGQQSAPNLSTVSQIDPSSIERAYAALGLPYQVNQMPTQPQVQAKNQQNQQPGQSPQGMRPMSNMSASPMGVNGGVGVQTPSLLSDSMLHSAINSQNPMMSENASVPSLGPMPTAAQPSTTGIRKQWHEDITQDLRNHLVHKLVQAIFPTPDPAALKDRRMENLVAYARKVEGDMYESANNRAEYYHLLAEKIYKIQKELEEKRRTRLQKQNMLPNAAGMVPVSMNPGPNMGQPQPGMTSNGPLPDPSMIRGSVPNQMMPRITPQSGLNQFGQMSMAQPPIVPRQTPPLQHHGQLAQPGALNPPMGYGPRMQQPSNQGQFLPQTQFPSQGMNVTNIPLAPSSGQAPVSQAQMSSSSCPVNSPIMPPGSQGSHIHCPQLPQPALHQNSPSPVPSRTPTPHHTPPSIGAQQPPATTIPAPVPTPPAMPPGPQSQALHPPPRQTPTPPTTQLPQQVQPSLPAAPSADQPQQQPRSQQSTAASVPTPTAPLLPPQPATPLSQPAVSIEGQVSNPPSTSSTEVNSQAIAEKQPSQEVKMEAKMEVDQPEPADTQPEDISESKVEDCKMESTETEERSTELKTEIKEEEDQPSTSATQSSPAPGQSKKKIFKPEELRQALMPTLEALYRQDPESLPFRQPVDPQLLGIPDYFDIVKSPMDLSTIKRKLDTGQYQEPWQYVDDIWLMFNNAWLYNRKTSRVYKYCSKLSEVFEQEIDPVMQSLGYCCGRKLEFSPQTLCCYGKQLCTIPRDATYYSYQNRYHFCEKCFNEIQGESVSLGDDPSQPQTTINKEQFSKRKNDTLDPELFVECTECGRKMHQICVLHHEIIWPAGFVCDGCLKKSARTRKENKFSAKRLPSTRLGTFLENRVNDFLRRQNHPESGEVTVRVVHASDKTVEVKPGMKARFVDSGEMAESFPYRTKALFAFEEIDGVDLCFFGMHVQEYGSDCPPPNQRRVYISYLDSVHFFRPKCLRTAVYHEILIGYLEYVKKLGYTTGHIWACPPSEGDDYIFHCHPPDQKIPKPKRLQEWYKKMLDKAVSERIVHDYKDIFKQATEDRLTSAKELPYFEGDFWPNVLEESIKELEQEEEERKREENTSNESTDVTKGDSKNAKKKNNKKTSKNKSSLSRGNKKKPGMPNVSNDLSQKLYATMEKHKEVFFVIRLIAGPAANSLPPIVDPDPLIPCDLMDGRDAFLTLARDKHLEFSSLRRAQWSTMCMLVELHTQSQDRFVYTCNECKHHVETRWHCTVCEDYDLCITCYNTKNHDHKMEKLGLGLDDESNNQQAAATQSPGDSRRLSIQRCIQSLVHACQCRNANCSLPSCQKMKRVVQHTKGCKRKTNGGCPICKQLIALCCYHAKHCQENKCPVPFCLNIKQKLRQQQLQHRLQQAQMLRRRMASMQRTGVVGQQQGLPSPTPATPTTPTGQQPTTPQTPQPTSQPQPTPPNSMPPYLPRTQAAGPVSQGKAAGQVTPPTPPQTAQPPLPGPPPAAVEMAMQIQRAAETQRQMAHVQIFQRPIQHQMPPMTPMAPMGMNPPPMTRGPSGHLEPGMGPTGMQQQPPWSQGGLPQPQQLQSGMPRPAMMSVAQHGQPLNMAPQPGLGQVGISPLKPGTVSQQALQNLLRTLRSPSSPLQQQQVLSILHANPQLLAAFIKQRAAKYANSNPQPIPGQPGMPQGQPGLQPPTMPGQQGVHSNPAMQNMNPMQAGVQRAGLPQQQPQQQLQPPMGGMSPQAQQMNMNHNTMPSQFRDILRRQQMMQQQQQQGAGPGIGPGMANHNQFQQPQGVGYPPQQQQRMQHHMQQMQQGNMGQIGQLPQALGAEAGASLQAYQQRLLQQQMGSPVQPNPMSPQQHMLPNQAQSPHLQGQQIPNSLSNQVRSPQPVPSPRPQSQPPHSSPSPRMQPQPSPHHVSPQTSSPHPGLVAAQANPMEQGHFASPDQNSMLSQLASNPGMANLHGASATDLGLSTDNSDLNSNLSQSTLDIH
The target of test [5] is T2, p300. The experiment in a line: p300 catalytic activity inhibition. In kind it is biochemical. The following applies: means ± S.D., n = 3.
Description: as §2

The next test deals with SU‐DHL‐10 cells. The experiment in a line: MTT proliferation assay, SU‐DHL‐10. In kind it is cell-based. The note with it: for IC50: Homo sapiens, n = 2, read-out: IC50 (cell proliferation). As to the method:
as §1

The test system of test [6] is histone deacetylases (HDACs). Details: method as in PMID 26718586. The following applies: cited from earlier work.
The next test has as its system neuroblastoma cell. Details: method as in PMID 34772733. The following applies: cited from earlier work.
[7] abbreviates: SU-DHL10, SU‐DHL‐10, 24 h treatment.
Setting [8] is: SU-DHL10, SU‐DHL‐10, 72 h treatment.

“Also recorded” adds a separate entry of the source. Read-outs that look alike come from different tables or passages of the source. Residues, ends and D or L forms follow the SMILES beside them. *: point of attachment. Cbz = O=C(OCc1ccccc1)*

T1 sequence (Q92793 whole entry): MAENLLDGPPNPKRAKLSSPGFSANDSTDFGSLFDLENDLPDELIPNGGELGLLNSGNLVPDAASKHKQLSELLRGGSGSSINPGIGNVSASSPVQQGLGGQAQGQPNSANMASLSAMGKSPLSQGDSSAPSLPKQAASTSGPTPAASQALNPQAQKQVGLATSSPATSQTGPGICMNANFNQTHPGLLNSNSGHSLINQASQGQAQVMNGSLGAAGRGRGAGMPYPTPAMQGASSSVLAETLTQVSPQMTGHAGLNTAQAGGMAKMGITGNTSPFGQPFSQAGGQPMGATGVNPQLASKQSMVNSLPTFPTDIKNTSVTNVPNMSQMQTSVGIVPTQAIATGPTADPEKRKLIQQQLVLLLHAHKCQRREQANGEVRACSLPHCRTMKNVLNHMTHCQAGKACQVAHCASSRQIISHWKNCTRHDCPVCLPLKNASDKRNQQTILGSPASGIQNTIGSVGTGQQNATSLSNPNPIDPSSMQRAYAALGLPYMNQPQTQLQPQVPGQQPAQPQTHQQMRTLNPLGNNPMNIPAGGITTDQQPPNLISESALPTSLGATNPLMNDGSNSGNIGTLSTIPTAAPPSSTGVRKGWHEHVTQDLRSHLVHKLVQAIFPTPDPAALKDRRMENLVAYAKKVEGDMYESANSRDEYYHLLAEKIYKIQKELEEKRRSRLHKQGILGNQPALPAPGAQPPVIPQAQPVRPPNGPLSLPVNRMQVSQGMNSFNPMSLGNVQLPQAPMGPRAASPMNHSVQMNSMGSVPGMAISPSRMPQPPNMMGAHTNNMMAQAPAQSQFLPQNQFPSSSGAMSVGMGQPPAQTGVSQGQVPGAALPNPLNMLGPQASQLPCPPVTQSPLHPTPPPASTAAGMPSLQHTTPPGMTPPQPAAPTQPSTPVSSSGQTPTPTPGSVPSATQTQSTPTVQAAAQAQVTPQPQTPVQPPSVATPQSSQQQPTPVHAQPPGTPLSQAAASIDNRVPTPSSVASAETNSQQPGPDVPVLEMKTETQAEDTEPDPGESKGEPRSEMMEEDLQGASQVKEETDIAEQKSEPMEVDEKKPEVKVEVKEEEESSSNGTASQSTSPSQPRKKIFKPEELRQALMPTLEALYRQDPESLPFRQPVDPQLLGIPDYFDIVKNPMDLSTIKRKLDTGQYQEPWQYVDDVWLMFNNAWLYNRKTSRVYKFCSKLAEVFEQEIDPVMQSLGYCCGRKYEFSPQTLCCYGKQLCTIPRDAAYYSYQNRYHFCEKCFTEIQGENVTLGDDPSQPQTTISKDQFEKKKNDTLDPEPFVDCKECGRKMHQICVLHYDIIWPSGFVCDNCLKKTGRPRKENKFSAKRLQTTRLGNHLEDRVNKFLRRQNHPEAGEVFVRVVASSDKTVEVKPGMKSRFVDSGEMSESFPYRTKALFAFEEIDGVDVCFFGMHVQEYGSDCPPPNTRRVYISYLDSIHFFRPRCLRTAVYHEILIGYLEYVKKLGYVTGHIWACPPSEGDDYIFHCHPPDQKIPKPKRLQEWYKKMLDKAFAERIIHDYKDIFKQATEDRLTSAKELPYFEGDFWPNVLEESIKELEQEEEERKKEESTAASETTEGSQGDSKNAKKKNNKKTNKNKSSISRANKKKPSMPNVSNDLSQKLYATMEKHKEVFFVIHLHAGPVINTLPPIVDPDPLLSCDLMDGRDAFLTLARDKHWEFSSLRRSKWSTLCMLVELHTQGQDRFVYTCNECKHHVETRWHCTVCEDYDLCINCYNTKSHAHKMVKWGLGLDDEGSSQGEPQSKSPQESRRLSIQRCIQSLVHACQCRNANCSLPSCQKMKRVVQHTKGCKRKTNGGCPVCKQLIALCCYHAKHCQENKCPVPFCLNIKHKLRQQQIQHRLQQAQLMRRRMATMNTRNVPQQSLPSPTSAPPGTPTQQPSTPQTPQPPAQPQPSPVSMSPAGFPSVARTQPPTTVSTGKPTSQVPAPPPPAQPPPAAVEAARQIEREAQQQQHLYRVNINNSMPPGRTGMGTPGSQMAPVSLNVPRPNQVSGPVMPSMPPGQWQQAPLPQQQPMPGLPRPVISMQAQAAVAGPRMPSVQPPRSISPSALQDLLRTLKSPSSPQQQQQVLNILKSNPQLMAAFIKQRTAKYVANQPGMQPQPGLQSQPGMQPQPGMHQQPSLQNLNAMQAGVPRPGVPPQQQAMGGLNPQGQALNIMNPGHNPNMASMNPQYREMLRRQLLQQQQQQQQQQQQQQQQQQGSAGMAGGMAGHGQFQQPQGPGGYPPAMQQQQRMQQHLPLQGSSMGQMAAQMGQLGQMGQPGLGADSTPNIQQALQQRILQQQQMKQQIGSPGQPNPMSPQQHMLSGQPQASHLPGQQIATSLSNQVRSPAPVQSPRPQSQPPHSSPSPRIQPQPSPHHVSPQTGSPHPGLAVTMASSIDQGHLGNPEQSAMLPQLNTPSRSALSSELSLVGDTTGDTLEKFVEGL

As to `CC1=NN(c2ccc(C(=O)NCCCOCCOCCOCCCNC(=O)COc3cccc4c3C(=O)N(C3CCC(=O)NC3=O)C4=O)cc2)C(=O)/C1=C\c1ccc(-c2cc(C)c(C)cc2[N+](=O)[O-])o1` (centres unmarked) [Compound 1, (Z)‐4‐(4‐((5‐(4,5‐dimethyl‐2‐nitrophenyl)furan‐2‐yl)methylene)‐3‐methyl‐5‐oxo‐4,5‐dihydro‐1 H‐pyrazol‐1‐yl)‐N‐(1‐((2‐(2,6‐dioxopiperidin‐3‐yl)‐1,3‐dioxoisoindolin‐4‐yl)oxy)‐2‐oxo‐7,10,13‐trioxa‐3‐azahexadecan‐16‐yl)benzamide], the IC50 in the test with SU‐DHL‐16 was 2990 ± 190 nM; with SU‐DHL‐2, 2050 ± 68 nM; against CBP [1] it was 600 to 900 nM; in the test on TMD8 it was 1950 ± 69 nM; with WSU‐DLCL2, 3240 ± 280 nM; in test [2] it was 2000 to 8000 nM. The IC50 against p300 [5] is 600 to 900 nM; in the test with SU‐DHL‐10 cells (setting [7]), 3440 ± 120 nM; in the test on SU‐DHL‐10 cells (setting [8]), 2730 ± 72 nM. The H3K27 acetylation entry in the test with H3K27 acetylation (SU‐DHL‐10, 5 μM) was “decreased H3K27 acetylation”. For the same molecule, the “CBP levels (WB)” value is “reduced the levels of CBP; also recorded: decreased the levels of CBP” on CBP [3] (SU‐DHL‐10, 2.5 μM, 8 h) and “returned to the initial levels” on CBP [3] (SU‐DHL‐10, 2.5 μM, 24 h). For the same molecule, the “decrease of protein (CBP) levels” value at CBP [3] (SU‐DHL‐10, 10 μM, 24 h) is on record as “roughly 70%”. Moreover, the “CBP levels (WB), combination with C646” value at CBP [3] (SU‐DHL‐10, 1 2.5 μM + C646 10 μM, 8 h) was “did not affect CBP levels”. In addition, the “CBP degradation (WB), co‐incubation with MG132” value on CBP [3] (SU‐DHL‐10, 1 2.5 μM + MG132 10 μM, 8 h) is given as “abolishes 1‐induced CBP degradation”. Moreover, the “CBP protein levels (WB)” value at CBP [3] (SU‐DHL‐10, increasing concentrations, 24 h) is “dose‐dependent reduction; also recorded: slightly better efficacy on CBP compared to the previously reported PROTAC JQAD1”. Further, the “p300 levels (WB)” value is recorded as “decreased protein levels” at p300 [4] (SU‐DHL‐10, 2.5 μM, 8 h); “no difference was observed” on p300 [4] (SU‐DHL‐10, 2.5 μM, 24 h); “significantly reduced p300 levels” on p300 [4] (SU‐DHL‐10, 10 μM, 24 h). Besides, the “p300 protein levels (WB)” value at p300 [4] (24 h) is reported as “dose‐dependent reduction”.
`CC1=NN(c2ccc(C(=O)NCCOCCOCCNC(=O)COc3cccc4c3C(=O)N(C3CCC(=O)NC3=O)C4=O)cc2)C(=O)/C1=C\c1ccc(-c2cc(C)c(C)cc2[N+](=O)[O-])o1` (centres unmarked) [Compound 2, (Z)‐4‐(4‐((5‐(4,5‐dimethyl‐2‐nitrophenyl)furan‐2‐yl)methylene)‐3‐methyl‐5‐oxo‐4,5‐dihydro‐1 H‐pyrazol‐1‐yl)‐N‐(2‐(2‐(2‐(2‐((2‐(2,6‐dioxopiperidin‐3‐yl)‐1,3‐dioxoisoindolin‐4‐yl)oxy)acetamido)ethoxy)ethoxy)ethyl)benzamide]: the IC50 is 8020 ± 2460 nM with SU‐DHL‐16; 4960 ± 330 nM in the test on SU‐DHL‐2; 600 to 900 nM on CBP [1]; 7810 ± 3040 nM in the test with TMD8; 5230 ± 850 nM in the test on WSU‐DLCL2; 2000 to 8000 nM in [2]. Further, the IC50 at p300 [5] was 600 to 900 nM; with SU‐DHL‐10 cells (setting [7]), 6440 ± 810 nM; with SU‐DHL‐10 cells (setting [8]) it was 6340 ± 1760 nM. Besides, the “CBP levels (WB)” value on CBP [3] (SU‐DHL‐10, 2.5 μM, 8 h) is on record as “slightly less active”; at CBP [3] (SU‐DHL‐10, 2.5 μM, 24 h), “returned to the initial levels”. Further, the “decrease of protein (CBP) levels” value on CBP [3] (SU‐DHL‐10, 10 μM, 24 h) was “roughly 70%”. Moreover, the “p300 levels (WB)” value on p300 [4] (SU‐DHL‐10, 2.5 μM, 8 h) was “decreased protein levels”; on p300 [4] (SU‐DHL‐10, 2.5 μM, 24 h), “no difference was observed”; on p300 [4] (SU‐DHL‐10, 10 μM, 24 h), “significantly reduced p300 levels”.
Consider `CNC(=O)Nc1ccc2c(c1)CC[C@@]21OC(=O)N(CC(=O)N(Cc2ccc(F)cc2)[C@@H](C)C(F)(F)F)C1=O` [Compound A485, A‐485], for which the H3K27 acetylation entry in the test with H3K27 acetylation (SU‐DHL‐10, 5 and 10 μM) is recorded as “reduced H3K27 acetylation in a dose‐dependent fashion”.
As to `CC1=NN(c2ccc(C(=O)O)cc2)C(=O)/C1=C\c1ccc(-c2cc(C)c(C)cc2[N+](=O)[O-])o1` [Compound C646, C646, reference compound], the H3K27 acetylation result in the test on H3K27 acetylation (SU‐DHL‐10, 5 and 10 μM) is given as “did not reduce acetylation”. In test [6], the “inhibition of histone deacetylases (HDACs)” value is recorded as “inhibit histone deacetylases (HDACs) at low micromolar concentrations”. The values for the IC50 against CBP [1] and in the test on SU‐DHL‐10 cells (setting [7]) were 210 ± 10 nM and 12200 ± 3020 nM, respectively. Moreover, on CBP [3] (SU‐DHL‐10, 10 μM, 8 h), the “CBP levels (WB)” value is “no effect on CBP levels”.
Turning to `CC(C)C[C@@H](C=O)NC(=O)[C@H](CC(C)C)NC(=O)[C@H](CC(C)C)NC(=O)OCc1ccccc1` [MG132, reference compound] (Cbz-Leu-Leu-Leu-aldehyde), the IC50 with SU‐DHL‐10 cells (setting [7]) is 144 ± 2 nM.
For `O=C1CCC(N2C(=O)c3ccccc3C2=O)C(=O)N1` (centres unmarked) [Thalidomide, thalidomide, reference compound], the IC50 in the test on SU‐DHL‐10 cells (setting [7]) is over 20000 nM. The “effect on cell viability” value in the test on SU‐DHL‐10 cells (SU‐DHL‐10, 24 h, up to 20 μM) was “no significant effects on cell viability”.
As to JQAD1, the H3K27 acetylation entry with H3K27 acetylation (SU‐DHL‐10, 5 and 10 μM) is listed as “reduced H3K27 acetylation in a dose‐dependent fashion”. Besides, the “IC50, neuroblastoma cell viability” value with neuroblastoma cell is listed as “nanomolar range”. In addition, the “p300 protein levels (WB)” value at p300 [4] (24 h) is “slightly higher potency”.

Source of the values: publication PMC12174726 (Chemmedchem, 2025).
